Measured values taken from paper PMC9283524 (Nature Communications, 2022).
“And” between values parts separate entries of the source, which are not always exact repeats. Equal values may be shown once.

Legend:
Experiment in all cases: cell-based
turkey β1-AR T203^ECL2A = turkey β1-AR T203^ECL2A (Meleagris gallopavo, UniProt P07700, T203A)
Experimental: (§1) CHO cells (transfected with a control empty vector or wild-type or mutant turkey β1-AR) were plated onto six-well plates, and were pre-incubated with culture medium buffered with 0.5 mM IBMX for 30 min at 37 °C[20]. […] After culture medium removal, cells were treated with 0.1 M HCl for 10 minutes at room temperature. After centrifugation, the supernatant was used for cAMP quantification using the Direct Cyclic AMP Enzyme Immunoassay kit (Enzo Life Sciences). […] The cAMP assays were repeated three times, and the data are represented as mean ± SD of the three independent experiments. The analysis was done using the log(agonist) vs. response function of Prism 8 (GraphPad)[20].

turkey β1-AR W117^3.28A = turkey β1-AR W117^3.28A (Meleagris gallopavo, UniProt P07700, W117A)
Experimental: as §1

turkey β1-AR L101^2.64A = turkey β1-AR L101^2.64A (Meleagris gallopavo, UniProt P07700, L101A)
Experimental: as §1

turkey β1-AR W330^7.40A = turkey β1-AR W330^7.40A (Meleagris gallopavo, UniProt P07700, W330A); details: for cAMP level: Fig 3 source data, W330A
Experimental: as §1

[1] = CHO, 5 min, read-out: Efficacy (% of max cAMP level)

Sequence of turkey β1-AR W330^7.40A (P07700 whole entry W330A): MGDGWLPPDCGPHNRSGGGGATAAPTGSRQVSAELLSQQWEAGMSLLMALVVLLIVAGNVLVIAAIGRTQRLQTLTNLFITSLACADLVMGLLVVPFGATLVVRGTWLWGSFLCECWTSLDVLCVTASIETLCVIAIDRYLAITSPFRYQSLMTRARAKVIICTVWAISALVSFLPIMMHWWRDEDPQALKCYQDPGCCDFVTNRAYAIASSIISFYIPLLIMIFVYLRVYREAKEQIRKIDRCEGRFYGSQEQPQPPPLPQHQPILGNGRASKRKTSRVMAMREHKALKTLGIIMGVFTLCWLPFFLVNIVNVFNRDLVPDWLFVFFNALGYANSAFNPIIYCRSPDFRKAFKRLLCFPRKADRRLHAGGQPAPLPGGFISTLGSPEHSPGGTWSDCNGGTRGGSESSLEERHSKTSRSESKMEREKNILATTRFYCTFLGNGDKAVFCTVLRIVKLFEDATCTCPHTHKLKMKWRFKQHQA
Sequence of turkey β1-AR W117^3.28A (P07700 whole entry W117A): as the sequence (P07700 whole entry W330A) above, with W117A, A330W counted along it
Sequence of turkey β1-AR L101^2.64A (P07700 whole entry L101A): as the sequence (P07700 whole entry W330A) above, with L101A, A330W counted along it
Sequence of turkey β1-AR T203^ECL2A (P07700 whole entry T203A): as the sequence (P07700 whole entry W330A) above, with T203A, A330W counted along it

CC(CCc1ccc(O)cc1)NCCc1ccc(O)c(O)c1 (stereo not drawn) [Dobutamine, dobutamine]
EC50 (turkey β1-AR T203^ECL2A): 1.58 µM | Emax (turkey β1-AR T203^ECL2A; [1]): 99 ± 0.7% | EC50 (turkey β1-AR W117^3.28A): 7.76 µM | Emax (turkey β1-AR W117^3.28A; [1]): 16 ± 0.8% | EC50 (turkey β1-AR L101^2.64A): 6.61 µM | Emax (turkey β1-AR L101^2.64A; [1]): 37 ± 1.1% | EC50 (turkey β1-AR W330^7.40A): 2.95 µM | Emax (turkey β1-AR W330^7.40A; [1]): 85 ± 0.8% | cAMP level (turkey β1-AR W330^7.40A; log[ligand] (M) -3): 346 and 351 and 347 | cAMP level (turkey β1-AR W330^7.40A; log[ligand] (M) -4): 342 and 348 and 346 | cAMP level (turkey β1-AR W330^7.40A; log[ligand] (M) -5): 266 and 272 and 271 | cAMP level (turkey β1-AR W330^7.40A; log[ligand] (M) -6): 127 and 136 and 131 | cAMP level (turkey β1-AR W330^7.40A; log[ligand] (M) -7): 58 and 65 and 63 | cAMP level (turkey β1-AR W330^7.40A; log[ligand] (M) -8): 43 and 48 | cAMP level (turkey β1-AR W330^7.40A; log[ligand] (M) -9): 38 and 45 and 43
